According to patent US20230099204A1, “PHARMACEUTICAL COMPOSITION FOR PREVENTION OR TREATMENT OF CANCER IN WHICH KRAS MUTATION AND ACTIVATED RON ARE PRESENT” (WELLMARKER BIO CO., LTD., priority 2020, published 2023):

Assays:
[1] = system: HCT15 (KRAS G13D/mRON Δ160); assay: Cell line HCT15-transplanted mouse model; type: in vivo, BALB/c nude mice
Method: 5-Week-old female BALB/c nude mice were purchased and acclimatized for 1 week. Then, human colorectal cancer patient-derived cell line HCT15 (KRAS G13D/mRON Δ160) at 5×10^6 cells/mouse was injected subcutaneously (100 μL) into the right dorsal side of the mice. The compound of Example 1 was orally administered when the tumor reached a size of about 100 mm^3 The drug was administered once a day for 4 weeks, and tumor size and mouse body weight were measured twice a week.
After completion of the drug administration, the tumor tissues were analyzed.

[2] = system: T84; assay: Cell death induction, trypan blue cell counting, T84; type: cell-based; conditions: T84 with a RON mutation; 1 μM; 48 hours; FIG. 1
Method: Based on the results above, to identify the cell death-inducing ability of the compounds of Example 1 and positive control 1, which are representative materials, preparation was performed by seeding respective colorectal cancer cell lines SNU-[…], HCT8, T84, and SW620 onto 60-mm plates at 3×10^5 cells, and then incubation was performed for 24 hours. Thereafter, treatment with each of Example 1 and positive control 1 was performed at 1μM and incubation was performed for 48 hours. After 48 hours, the cells and cell suspensions were collected by treatment with trypsin, resuspended in 1× PBS and stained using a trypan blue solution (Sigma, cat# T8154). The stained cells were counted using a hemocytometer. Cell counting was repeated, and the mean and the standard deviation were calculated.

[3] = system: SW620 (KRAS G12V/mRON Δ155); assay: Mechanism of action in SW620 overexpressing β-catenin (trypan blue exclusion, Western blotting); type: cell-based, human
Method: Each of an empty vector and human beta-catenin pcDNA3.1 (Plasmid #16828, Addgene) that is a vector into which β-catenin DNA (X87838.1, GENE ID: 1499) is introduced, was transfected into the human colorectal cancer patient-derived cell line SW620 (KRAS G12V/mRON […]), and then treatment with the compound of Example 1 was performed. Subsequently, all cells were collected when 48 hours had elapsed. Cell death induction efficacy was compared and analyzed using a trypan blue exclusion assay. As described above, the cell line SW620 was caused to overexpress β-catenin. Then, treatment with the compound of Example 1 was performed, and cell death induction efficacy was observed. In addition, as described above, the cell line SW 620 was caused to overexpress β-catenin. Then, the sample treated with the compound of Example 1 was used to identify expressions of β-catenin, p-ERK, ERK, c-myc, cyclin D1, pTyr-mRON, mRON, and cleaved caspase 3 with Western blotting.

CCOc1ccn(-c2ccc(F)cc2)c(=O)c1C(=O)Nc1ccc(Oc2ccnc3cc(-c4ccc(CN5CCOCC5)cn4)sc23)c(F)c1.Cl [Example 1, 4-ethoxy-N-[3-fluoro-4-({2-[5-(morpholinomethyl)pyridine-2-yl]thieno[3,2-b]pyridine-7-yl}oxy)phenyl]-1-(4-fluorophenyl)-2-oxo-1,2-dihydropyridine-3-carboxamide hydrochloride]
expression of cleaved caspase 3 in tumor tissue ([1]; FIG. 13): induced expression | expression of cyclin D1 (PD marker) in tumor tissue ([1]; FIG. 13): decreased expression | expression of pTyr-mRON in tumor tissue ([1]; FIG. 13): decreased expression | tumor growth inhibitory efficacy ([1]; oral, once a day for 4 weeks, FIG. 12): high tumor growth inhibitory efficacy | cell death induction efficacy [2]: cell death induction efficacy was exhibited regardless of mutation type | expression of pTyr-mRON ([3]; SW620, empty vector or β-catenin overexpressed, Western blotting, FIG. 11): decreased by the compound of Example 1 regardless of β-catenin | cell death induction efficacy ([3]; SW620 overexpressing β-catenin, 48 hours, trypan blue exclusion, FIG. 10): cell death induction efficacy of the compound was decreased | expression of p-ERK, c-myc, and cyclin D1 ([3]; SW620 transfected with the empty vector, Western blotting, FIG. 11): decreased | expression of p-ERK, c-myc, and cyclin D1 ([3]; SW620 with β-catenin overexpressed, Western blotting, FIG. 11): increased again
